In data set [1] the test system is Huh7 cells expressing a subgenomic RNA replicon of Con1 (genotype 1b) sequence origin. The experiment in a line: microbe, parasite or virus in culture. Particulars: Hepatitis C virus.
A further data set is described as follows: in vitro. The note with it: human.
The mark [2] stands for this setting: Huh-7, read-out: IC50 (uM) [SG].
Setting [3] is: Huh-7, read-out: Max Effect@CC30 (inhibition).
The mark [4] stands for this setting: Huh-7, read-out: Max Effect @CC30 (inhibition).

The structures appear in SMILES notation. Read-outs that look alike come from different tables or passages of the source. A value given as a limit tells only on which side of the number the result lay.

By IC90 is commonly meant the concentration at which the effect reaches the 90% level. Low values mean greater potency, high ones weaker potency. The IC50 is the concentration that inhibits the measured activity by half. The compound `CSc1ccc(Oc2ccc(S(N)(=O)=O)cc2CN2CCN(CCO)CC2)cc1C` [Compound 95, 3-((4-(2-hydroxyethyl)piperazin-1-yl)methyl)-4-(3-methyl-4-(methylthio)phenoxy)benzenesulfonamide] came in with a concentration for an effect of 90% (IC90) in data set [1] (Huh-7) of 17 µM. In data set [1] (setting [2]), the IC50 turned out to be 6.5 µM. The same compound gave a CC50 in the data set “in vitro” (CC50 (uM) [SG]) of over 50 µM.
Regarding `CCCCS(=O)(=O)Nc1ccc2c(c1)[C@@H](NC)CC[C@H]2c1ccc(Cl)c(Cl)c1` [N-((5S,8S)-5-(3,4-dichlorophenyl)-8-(methylamino)-5,6,7,8-tetrahydronaphthalen-2-yl)butane-1-sulfonamide], the IC50 in data set [1] (setting [2]) was 6.07 µM. For the same compound, the CC50 in the data set “in vitro” (CC50 (uM) [SG]) was 3.63 µM.
As to `CN[C@H]1CC[C@@H](c2ccc(Cl)c(Cl)c2)c2ccc(NC(=O)c3ccccc3)cc21` [Sertraline A-Ring Reverse Benzamide, N-((5S,8S)-5-(3,4-dichlorophenyl)-8-(methylamino)-5,6,7,8-tetrahydronaphthalen-2-yl)benzamide], the IC50 in data set [1] (Huh-7) and in data set [1] (setting [2]) was 2.94 µM in each case. In data set [1] (Huh-7), this compound returned a 90% effect concentration (IC90) of 3.88 µM. The Emax in data set [1] (setting [3]) turned out to be 62.2%. Besides, the CC50 in “in vitro” (CC50 (uM)) and in “in vitro” (CC50 (uM) [SG]) was 3.67 µM in each case.
As to `CNC(=O)c1ccc2c(c1)[C@@H](NC)CC[C@H]2c1ccc(Cl)c(Cl)c1` [Sertraline A-Ring Methyl Carboxamide, (5S,8S)-5-(3,4-dichlorophenyl)-N-methyl-8-(methylamino)-5,6,7,8-tetrahydronaphthalene-2-carboxamide], in data set [1] (setting [2]), the half-inhibitory concentration (IC50) was determined as 2.82 µM. In addition, the Emax in data set [1] (setting [3]) turned out to be 81.2%. This compound also yielded a CC50 in the data set “in vitro” (CC50 (uM) [SG]) of 11.1 µM.
As for `COC[C@@H]1CCCN1Cc1cc(S(N)(=O)=O)ccc1Oc1ccc(SC)c(C)c1` [Compound 104, (S)-3-((2-(methoxymethyl)pyrrolidin-1-yl)methyl)-4-(3-methyl-4-(methylthio)phenoxy)benzenesulfonamide], the 50% inhibitory concentration (IC50) in data set [1] (setting [2]) is 27.8 µM. In addition, the CC50 in the data set “in vitro” (CC50 (uM) [SG]) is over 50 µM.
In data set [1] (Huh-7), `CSc1ccc(Oc2ccc(S(N)(=O)=O)cc2CN2CCCC2)cc1C` [Compound 101, 4-(3-methyl-4-(methylthio)phenoxy)-3-(pyrrolidin-1-ylmethyl)benzenesulfonamide] showed an IC90 of 4.74 µM. The IC50 in data set [1] (setting [2]) came to 1.74 µM. Further, the CC50 in “in vitro” (CC50 (uM) [SG]) was 40.6 µM.
`CNCc1cc(S(N)(=O)=O)ccc1Oc1ccc(SC)cc1` [Compound 43, 3-((methylamino)methyl)-4-(4-(methylthio)phenoxy)benzenesulfonamide]: the half-inhibitory concentration (IC50) in data set [1] (setting [2]) was 32.7 µM. Further, in data set [1] (setting [3]), the Emax stood at 73.7%. This compound returned a CC50 in “in vitro” (CC50 (uM) [SG]) of over 50 µM.
Consider `CSc1ccc(Oc2ccc(N)cc2CN(C)C)cc1C` [Compound 53, 3-((dimethylamino)methyl)-4-(3-methyl-4-(methylthio)phenoxy)aniline], for which the 90% effect level in data set [1] (Huh-7) (IC90) was put at 45.7 µM. In data set [1] (setting [2]), the IC50 amounted to 22.6 µM. In data set [1] (setting [3]), the Emax amounted to 91.5%. The compound further had a CC50 in the data set “in vitro” (CC50 (uM) [SG]) of over 50 µM.
Regarding `CN[C@H]1CC[C@@H](c2ccc(Cl)c(Cl)c2)c2ccc(C(N)=S)cc21` [Sertraline A-Ring Thiocarboxamide, (5S,8S)-5-(3,4-dichlorophenyl)-8-(methylamino)-5,6,7,8-tetrahydronaphthalene-2-carbothioamide], in data set [1] (setting [2]), the IC50 turned out to be 7.19 µM. For the same compound, the CC50 in the data set “in vitro” (CC50 (uM) [SG]) was 13.2 µM.
Take `CSc1ccc(Oc2ccc(S(N)(=O)=O)cc2CN2CC[C@H](O)C2)cc1C` [Compound 66, (S)-3-((3-hydroxypyrrolidin-1-yl)methyl)-4-(3-methyl-4-(methylthio)phenoxy)benzenesulfonamide]: in data set [1] (Huh-7), the 90% effect concentration (IC90) is 6.78 µM. The half-inhibitory concentration (IC50) in data set [1] (setting [2]) worked out at 2.43 µM. This compound came in with a CC50 in “in vitro” (CC50 (uM) [SG]) of over 50 µM.
In turn, `CSc1ccc(Oc2ccc(S(N)(=O)=O)cc2CNCCCN(C)C)cc1C` [Compound 79, 3-((3-(dimethylamino)propylamino)methyl)-4-(3-methyl-4-(methylthio)phenoxy)benzenesulfonamide] gave an IC90 in data set [1] (Huh-7) of 9.66 µM. Also, the IC50 in data set [1] (setting [2]) is 3.44 µM. In addition, the CC50 in the data set “in vitro” (CC50 (uM) [SG]) worked out at 17.8 µM.
As to `CSc1ccc(Oc2ccc(S(N)(=O)=O)cc2CN(C)CCCN(C)C)cc1C` [Compound 94, 3-(((3-(dimethylamino)propyl)(methyl)amino)methyl)-4-(3-methyl-4-(methylthio)phenoxy)benzenesulfonamide], in data set [1] (Huh-7), the IC90 came out at 7.38 µM. For the same compound, the IC50 in data set [1] (setting [2]) amounted to 3.26 µM. The CC50 in the data set “in vitro” (CC50 (uM) [SG]) came out at 15 µM.
Consider `CSc1ccc(Oc2ccccc2CN(C)C)cc1C` [Compound 8, N,N-dimethyl-1-(2-(3-methyl-4-(methylthio)phenoxy)phenyl)methanamine], for which the IC50 in data set [1] (setting [2]) turned out to be 12.2 µM. The Emax in data set [1] (setting [3]) is 52.3%. For the same compound, the CC50 in “in vitro” (CC50 (uM) [SG]) is 36 µM.
The compound `CSc1ccc(Oc2ccc(S(N)(=O)=O)cc2CN2CCC[C@H]2CN2CCCC2)cc1C` [Compound 105, (S)-4-(3-methyl-4-(methylthio)phenoxy)-3-(((2-pyrrolidin-1-ylmethyl)pyrrolidin-1-yl)methyl)benzensulfonamide] registered an IC90 in data set [1] (Huh-7) of 6.86 µM. Also, the IC50 in data set [1] (setting [2]) was 6.38 µM. In “in vitro” (CC50 (uM) [SG]), this compound returned a CC50 of 22.2 µM.
In the case of `CNc1ccc(Oc2ccc(SC)c(C)c2)c(CN(C)C)c1` [Compound 25, 3-((dimethylamino)methyl)-N-methyl-4-(3-methyl-4-(methylthio)phenoxy)aniline], in data set [1] (setting [2]), the IC50 came out at 20 µM. Also, in the data set “in vitro” (CC50 (uM) [SG]), the CC50 amounted to 46.9 µM.
Turning to `CN[C@H]1CC[C@@H](c2ccc(Cl)c(Cl)c2)c2ccc(NC(=O)C3CCCC3)cc21` [N-((5S,8S)-5-(3,4-dichlorophenyl)-8-(methylamino)-5,6,7,8-tetrahydronaphthalen-2-yl)cyclopentanecarboxamide], the half-inhibitory concentration (IC50) in data set [1] (Huh-7) and in data set [1] (setting [2]) was 4.02 µM throughout. In addition, in data set [1] (Huh-7), the 90% effect concentration (IC90) was 5.89 µM. Moreover, the Emax in data set [1] (setting [3]) was found to be 22.9%. Also, the CC50 in “in vitro” (CC50 (uM)) and in “in vitro” (CC50 (uM) [SG]) was 7 µM each time.
On to `CN[C@H]1CC[C@@H](c2ccc(Cl)c(Cl)c2)c2ccc(NC(C)=O)cc21` [Sertraline A-Ring Reverse Carboxamide, N-((5S,8S)-5-(3,4-dichlorophenyl)-8-(methylamino)-5,6,7,8-tetrahydronaphthalen-2-yl)acetamide], for which the concentration for half-maximal inhibition (IC50) in data set [1] (Huh-7) stood at 0.85 µM; in data set [1] (setting [2]), 0.91 ± 0.08 µM; in data set [1] (Huh-7, read-out: SA IC50 (uM)), 0.91 ± 0.08 µM. Besides, the 90% effect concentration (IC90) in data set [1] (Huh-7) worked out at 7.26 µM. Also, the Emax in data set [1] (setting [4]) worked out at 87.7%; in data set [1] (setting [3]), 83 ± 6.55%; in data set [1] (Huh-7, read-out: Max effect @CC30 (%)) it was 83 ± 6.55%. The CC50 was 10.7 µM in the data set “in vitro” (CC50 (uM)) and 12 ± 1.77 µM in the data set “in vitro” (CC50 (uM) [SG]).
Turning to `CSc1ccc(Oc2ccc(S(N)(=O)=O)cc2CN2CCNCC2)cc1C` [Compound 111, 4-(3-methyl-4-(methylthio)phenoxy)-3-(piperazin-1-ylmethyl)benzenesulfonamide], in data set [1] (Huh-7), the concentration for an effect of 90% (IC90) was 22.6 µM. Also, the IC50 in data set [1] (setting [2]) came out at 7.12 µM. Further, the CC50 in the data set “in vitro” (CC50 (uM) [SG]) was 46.3 µM.
With `CCCCC(=O)Nc1ccc2c(c1)[C@@H](NC)CC[C@H]2c1ccc(Cl)c(Cl)c1` [Sertraline A-Ring Reverse Pentanamide, N-((5S,8S)-5-(3,4-dichlorophenyl)-8-(methylamino)-5,6,7,8-tetrahydronaphthalen-2-yl)pentanamide], the IC50 in data set [1] (Huh-7) was found to be 3.68 µM; in data set [1] (setting [2]), 3.67 µM. The same compound returned an IC90 in data set [1] (Huh-7) of 5.03 µM. Also, the Emax in data set [1] (setting [4]) and in data set [1] (setting [3]) was 33.1% each time. The CC50 in the data set “in vitro” (CC50 (uM)) and in “in vitro” (CC50 (uM) [SG]) was 4.32 µM throughout.
